# In ChEMBL document CHEMBL6092203, “Discovery of Novel PROTAC-Based HPK1 Degraders with High Potency and Selectivity for Cancer Immunotherapy” (J Med Chem, 2024):
# Calls of active or inactive are those of the source. No cut-off for these calls is given here.
# Experiments:
# [1] = Toxicity in Sprague-Dawley rat assessed as efficacy dose exposure measured after 14 days; details: in vivo
# MC-38 [2] = test: Synergistic antitumor activity against mouse MC38 cells implanted in C57BL/6J mouse assessed as tumor weight inhibition rate at 1 mg/kg, po bid measured after 4 weeks in presence of 5 mg/kg anti-PD1 and measured twice a week; assay type: functional; design: scale not given: the % may be the effect or the level left
# [3] = Toxicity in C57BL/6J mouse assessed as change in body weight at 100 mg/kg, po qd measured after 28 days; assay type: organism-based; details: in vivo, 672 h, time 28 day
# [4] = Clearance in Sprague-Dawley rat at 2 mg/kg, iv measured upto 24 hrs by LC-MS analysis; details: in vivo
# [5] = Metabolic stability in dog liver microsomes assessed as intrinsic clearance at 1 uM incubated for 45 mins by LC-MS/MS method; assay type: ADME, Canis lupus familiaris, Microsome; details: read-out: CLH
# [6] = AUCinfinity in C57BL/6J mouse at 10 mg/kg, po measured upto 24 hrs by LC-MS analysis; assay type: ADME, organism-based; details: in vivo
# [7] = Apparent volume of distribution in mouse at 2 mg/kg, iv measured upto 24 hrs by LC-MS analysis; assay type: ADME, organism-based; details: in vivo
# MC-38 [8] = test: Synergistic antitumor activity against mouse MC38 cells implanted in C57BL/6J mouse assessed as tumor growth inhibition at 100 mg/kg, po QD measured after 4 weeks in presence of 5 mg/kg anti-PD1 and measured twice a week; assay type: functional; details: MC-38, 672 h, read-out: TGI
# [9] = Drug absorption in rat at 10 to 100 mg/kg, po; assay type: ADME, organism-based; details: in vivo, dose 10-100 mg/kg
# in vitro [10] = details: mouse, liver microsomes
# [11] = Toxicity in C57BL/6J mouse assessed as change in body weight at 100 mg/kg, po qd measured after 28 days in presence of 5 mg/kg anti-PD1; assay type: organism-based; details: in vivo, 672 h, time 28 day
# MC-38 [12] = test: Antitumor activity against mouse MC38 cells implanted in C57BL/6J mouse assessed as tumor growth inhibition at 0.5 mg/kg, IG BID administered for 3 to 4 weeks; assay type: functional, organism-based; details: time 3-4 weeks
# [13] = Plasma protein binding in monkey at 10 uM incubated for 6 hrs by equilibrium dialysis based LC-MS/MS method; assay type: ADME, cell-free, Macaca mulatta; details: rhesus monkey, read-out: PPB (converted)
# in vivo [14] = details: beagle, dog, po, 5 mg/kg
# Description: Oral bioavailability in Beagle dog at 5 mg/kg measured upto 24 hrs by LC-MS analysis
# MC-38 [15] = test: Antitumor activity against mouse MC38 cells implanted in C57BL/6J mouse assessed as tumor growth inhibition at 0.1 mg/kg, po BID measured after 4 weeks; assay type: functional; details: MC-38, 672 h, read-out: TGI
# Jurkat [16] = test: Induction of GCK degradation in human Jurkat cells at 1 to 1000 nM incubated for 24 hrs by Western blotting analysis; assay type: cell-based; details: dose 1-1000 nM
# [17] = Toxicity in C57BL/6J mouse assessed as body weight loss at 0.02 to 0.5 mg/kg, po qd administered for 3 to 4 weeks; assay type: organism-based; details: in vivo, dose lower 0.02 mg/kg, time lower 3 weeks, dose upper 0.5 mg/kg, time upper 4 weeks
# [18] = Drug distribution in rat liver measured after 0.5 to 6 hrs; assay type: ADME, tissue-based; details: in vivo, time 0.5-6 hrs
# [19] = Tmax in female Sprague-Dawley rat at 30 mg/kg/day, po measured at day 14; assay type: ADME, organism-based; details: in vivo, time 14 day
# MC-38 [20] = test: Synergistic antitumor activity against mouse MC38 cells implanted in C57BL/6J mouse assessed as tumor weight inhibition rate at 100 mg/kg, po QD measured after 4 weeks in presence of 5 mg/kg anti-PD1 and measured twice a week; assay type: functional; design: scale not given: the % may be the effect or the level left
# [21] = AUCinfinity in Beagle dog at 1 mg/kg, iv measured upto 24 hrs by LC-MS analysis; assay type: ADME, organism-based, Canis lupus familiaris; details: in vivo
# [22] = Drug metabolism in human hepatocytes assessed as phase 2 metabolites formation at 10 uM incubated for 120 mins by UHPLC-UV/MS/MS method; assay type: ADME, cell-based, Hepatocyte; details: 2 h
# [23] = Drug metabolism in mouse hepatocytes assessed as phase 2 metabolites formation at 10 uM incubated for 120 mins by UHPLC-UV/MS/MS method; assay type: ADME, cell-based, Hepatocyte; details: 2 h
# [24] = Drug metabolism in mouse hepatocytes assessed as phase 1 metabolites formation at 10 uM incubated for 120 mins by UHPLC-UV/MS/MS method; assay type: ADME, cell-based, Hepatocyte; details: 2 h
# Cytochrome P450 3A4 = Cytochrome P450 3A4 (Homo sapiens, UniProt P08684); test: Inhibition of CYP3A4 in human liver microsomes using testosterone as substrate in presence of NADPH; assay type: ADME, Microsome
# Cytochrome P450 3A4, sequence (P08684 whole entry): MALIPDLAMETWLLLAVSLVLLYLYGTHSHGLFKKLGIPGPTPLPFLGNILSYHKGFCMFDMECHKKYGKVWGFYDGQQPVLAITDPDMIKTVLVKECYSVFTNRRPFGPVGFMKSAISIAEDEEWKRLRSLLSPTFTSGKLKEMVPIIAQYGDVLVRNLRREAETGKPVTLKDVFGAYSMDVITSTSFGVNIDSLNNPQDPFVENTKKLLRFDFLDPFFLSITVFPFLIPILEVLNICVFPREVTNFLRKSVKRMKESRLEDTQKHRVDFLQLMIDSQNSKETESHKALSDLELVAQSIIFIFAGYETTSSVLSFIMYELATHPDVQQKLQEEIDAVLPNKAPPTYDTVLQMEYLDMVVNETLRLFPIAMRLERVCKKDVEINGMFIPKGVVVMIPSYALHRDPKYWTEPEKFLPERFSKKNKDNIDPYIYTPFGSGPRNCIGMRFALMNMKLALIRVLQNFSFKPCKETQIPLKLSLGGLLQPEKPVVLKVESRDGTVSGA
# in vitro [25] = details: dog, hepatocytes
# [26] = target: Protein cereblon/Mitogen-activated protein kinase kinase kinase kinase 1 (Homo sapiens, UniProt Q92918+Q96SW2); test: PROTAC activity at CRBN/HPK1 in human Jurkat cells assessed as HPK1 degradation at 300 nM measured after 24 hrs by Western blotting analysis; assay type: cell-based
# Protein cereblon/Mitogen-activated protein kinase kinase kinase kinase 1, sequence (Q92918 whole entry, looked up): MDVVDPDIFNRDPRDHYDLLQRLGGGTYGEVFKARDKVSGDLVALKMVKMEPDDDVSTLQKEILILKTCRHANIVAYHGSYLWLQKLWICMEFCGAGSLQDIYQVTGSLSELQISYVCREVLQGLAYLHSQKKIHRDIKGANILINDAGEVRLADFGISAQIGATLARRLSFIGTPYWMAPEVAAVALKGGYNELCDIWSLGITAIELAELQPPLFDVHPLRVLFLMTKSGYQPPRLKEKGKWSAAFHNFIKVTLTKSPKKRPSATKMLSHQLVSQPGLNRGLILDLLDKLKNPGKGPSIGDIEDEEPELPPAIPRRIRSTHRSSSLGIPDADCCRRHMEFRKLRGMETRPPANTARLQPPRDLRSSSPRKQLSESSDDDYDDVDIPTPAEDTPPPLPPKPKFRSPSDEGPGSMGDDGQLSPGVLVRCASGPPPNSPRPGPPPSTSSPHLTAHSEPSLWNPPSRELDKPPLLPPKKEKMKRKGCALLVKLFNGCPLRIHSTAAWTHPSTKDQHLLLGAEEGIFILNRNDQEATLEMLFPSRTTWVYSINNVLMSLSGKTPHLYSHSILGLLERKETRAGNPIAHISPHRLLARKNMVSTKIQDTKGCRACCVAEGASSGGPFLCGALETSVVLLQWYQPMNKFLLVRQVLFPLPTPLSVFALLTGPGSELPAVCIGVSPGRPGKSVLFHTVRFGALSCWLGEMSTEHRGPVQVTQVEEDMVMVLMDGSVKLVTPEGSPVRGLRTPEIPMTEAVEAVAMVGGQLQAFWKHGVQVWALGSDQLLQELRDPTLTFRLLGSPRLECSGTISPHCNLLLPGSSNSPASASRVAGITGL
# Protein cereblon/Mitogen-activated protein kinase kinase kinase kinase 1, sequence (Q96SW2 whole entry, looked up): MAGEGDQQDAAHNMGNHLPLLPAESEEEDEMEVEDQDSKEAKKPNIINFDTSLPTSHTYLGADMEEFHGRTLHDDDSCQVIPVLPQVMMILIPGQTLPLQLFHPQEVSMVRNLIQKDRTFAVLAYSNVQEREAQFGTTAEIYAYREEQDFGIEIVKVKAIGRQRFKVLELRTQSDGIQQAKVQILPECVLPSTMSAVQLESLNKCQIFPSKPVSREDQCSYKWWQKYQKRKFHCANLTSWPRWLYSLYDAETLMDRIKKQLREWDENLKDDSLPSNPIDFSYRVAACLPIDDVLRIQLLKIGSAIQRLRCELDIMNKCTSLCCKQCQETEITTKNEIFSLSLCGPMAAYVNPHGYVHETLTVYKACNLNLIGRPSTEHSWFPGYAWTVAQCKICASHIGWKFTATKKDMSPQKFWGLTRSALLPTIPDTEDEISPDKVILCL
# [27] = Tmax in male Sprague-Dawley rat at 30 mg/kg/day, po measured at day 1; assay type: ADME, organism-based; details: in vivo, time 1 day
# Cytochrome P450 1A2 = target: T1, Cytochrome P450 1A2 (Homo sapiens, UniProt P05177); test: Inhibition of CYP1A2 in human liver microsomes using phenacetin as substrate in presence of NADPH; assay type: ADME, Microsome
# T1 sequence (P05177 whole entry): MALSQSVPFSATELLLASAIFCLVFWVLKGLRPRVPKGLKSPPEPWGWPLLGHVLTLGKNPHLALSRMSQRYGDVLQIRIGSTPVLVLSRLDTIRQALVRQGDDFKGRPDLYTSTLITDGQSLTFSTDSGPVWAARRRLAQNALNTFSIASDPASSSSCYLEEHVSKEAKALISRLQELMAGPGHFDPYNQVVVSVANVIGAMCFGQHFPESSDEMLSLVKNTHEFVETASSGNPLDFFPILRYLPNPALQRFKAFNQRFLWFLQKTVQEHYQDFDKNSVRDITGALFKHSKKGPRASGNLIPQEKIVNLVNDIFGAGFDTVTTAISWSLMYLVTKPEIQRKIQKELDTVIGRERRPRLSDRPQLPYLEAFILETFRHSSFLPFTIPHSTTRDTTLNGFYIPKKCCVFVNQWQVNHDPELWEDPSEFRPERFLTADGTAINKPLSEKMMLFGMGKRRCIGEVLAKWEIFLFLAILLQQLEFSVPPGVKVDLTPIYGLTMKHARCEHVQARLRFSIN
# in vivo [28] = details: male, Sprague-Dawley, rat, po, 2 mg/kg
# Jurkat [29] = test: Induction of GLK degradation in human Jurkat cells at 1 to 1000 nM incubated for 24 hrs by Western blotting analysis; assay type: cell-based; details: dose 1-1000 nM
# in vivo [30] = details: C57BL/6J, mouse, po, 10 mg/kg
# [31] = Metabolic stability in dog hepatocytes assessed as intrinsic clearance at 1 uM incubated for 90 mins by LC-MS/MS method; assay type: ADME, cell-based, Canis lupus familiaris, Hepatocyte; details: 1.5 h
# [32] = Tmax in male Sprague-Dawley rat at 2 mg/kg/day, po measured at day 14; assay type: ADME, organism-based; details: in vivo, time 14 day
# [33] = Metabolic stability in monkey hepatocytes assessed as intrinsic clearance at 1 uM incubated for 90 mins by LC-MS/MS method; assay type: ADME, cell-based, Macaca mulatta, Hepatocyte; details: rhesus monkey, 1.5 h
structure (smiles),measurement,setting,value
O=C1CCN(c2cc(C(=O)N3CCC(CC4CCN(c5ccc(-c6cnc7[nH]cc(-c8cnn(CC(F)(F)F)c8)c7n6)cn5)CC4)CC3)ccc2Cl)C(=O)N1,AUC at 336 h,[1],291 ng·h/mL
same,Activity,MC-38 [2],76.61%
same,Activity,[3],Non-toxic
same,clearance at 24 h,[4],4.17 mL/min/kg
same,microsomal CLint at 1 µM,[5],20.3 µL/min/mg
same,AUC(0-inf),[6],12100 ng·h/mL
same,Vz,[7],0.121 L/kg
same,inhibition in vivo at 100 mg/kg,MC-38 [8],91%
same,Drug absorption,[9],Active
same,"half-life at 0.75 h, 1 µM",in vitro [10],1.73 h
same,Activity,[11],Non-toxic
same,Activity,MC-38 [12],Active; Comparable To 100 Mg/Kg Dd203-1 Treatement Group
same,"fraction unbound at 6 h, 10 µM",[13],0.0002
same,bioavailability at 24 h,in vivo [14],16%
same,inhibition in vivo at 0.1 mg/kg,MC-38 [15],28.5%
same,Activity,Jurkat [16],inactive
same,Activity,[17],Non-toxic
same,Drug uptake,[18],Active
same,Tmax,[19],8.67 h
same,Activity,MC-38 [20],83.04%
same,AUC(0-inf),[21],996 ng·h/mL
same,Drug metabolism,[22],metabolite_detected
same,Drug metabolism,[23],metabolite_detected
same,Drug metabolism,[24],metabolite_detected
same,IC50,Cytochrome P450 3A4,> 10 µM
same,"half-life at 1.5 h, 1 µM",in vitro [25],3.47 h
same,Activity,[26],Active
same,Tmax,[27],8 h
same,IC50,Cytochrome P450 1A2,> 10 µM
same,AUC at 336 h,in vivo [28],830 ng·h/mL
same,Activity,Jurkat [29],inactive
same,bioavailability at 24 h,in vivo [30],43.7%
same,CLH,[31],3.33 µL/min/mg
same,Tmax,[32],10 h
same,CLH,[33],8.85 µL/min/mg
